Laboratory results published in the supplement of paper PMC10307832.

Key:
Experiment in all cases: relative viability (nuclei count vs DMSO), 5 days (fraction); higher = more cells survive
NCI-H2170 = system: NCI-H2170
Summary of the method: (§1)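 Nuclei were stained with Hoechst during a one-step fixation (final 0.05% Triton X-100, 1% formaldehyde, 1 ug/ml Hoechst) carried out 5 days after dosing, then counted on 4× images. The cells, lung cancer lines in 1536-well plates, had been dosed by pin tool the day after seeding with one drug alone or a fixed anchor-drug dose plus five library-drug doses (not always all listed) in √10 steps. Relative viability is the nuclei count in treated wells divided by that in vehicle wells, and each value is the median of duplicate plates.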

NCI-H520 = system: NCI-H520
Summary of the method: as §1

EMC-BAC-2 = system: EMC-BAC-2
Summary of the method: as §1

NCI-H1993 = system: NCI-H1993
Summary of the method: as §1

PC-3 [JPC-3] = system: PC-3 [JPC-3]
Summary of the method: as §1

NCI-H1975 = system: NCI-H1975
Summary of the method: as §1

LCLC-97TM1 = system: LCLC-97TM1
Summary of the method: as §1

NCI-H1944 = system: NCI-H1944
Summary of the method: as §1

NCI-H1793 = system: NCI-H1793
Summary of the method: as §1

NCI-H2009 = system: NCI-H2009
Summary of the method: as §1

NCI-H1666 = system: NCI-H1666
Summary of the method: as §1

PC-14 = system: PC-14
Summary of the method: as §1

NCI-H647 = system: NCI-H647
Summary of the method: as §1

SW 1573 = system: SW 1573
Summary of the method: as §1

NCI-H727 = system: NCI-H727
Summary of the method: as §1

NCI-H460 = system: NCI-H460
Summary of the method: as §1

NCI-H2126 = system: NCI-H2126
Summary of the method: as §1

NCI-H1755 = system: NCI-H1755
Summary of the method: as §1

SK-LU-1 = system: SK-LU-1
Summary of the method: as §1

NCI-H2347 = system: NCI-H2347
Summary of the method: as §1

`COCC1(CO)C(=O)C2CCN1CC2` (stereo unspecified) [PRIMA-1MET] + CC1(C)CCC(c2ccc(Cl)cc2)=C(CN2CCN(c3ccc(C(=O)NS(=O)(=O)c4ccc(N[C@H](CCN5CCOCC5)CSc5ccccc5)c(S(=O)(=O)C(F)(F)F)c4)cc3)CC2)C1 [Navitoclax] (partner 0.5 µM) was tested, and the relative viability (NCI-H2170; first compound 0.2 µM) was 0.621, the relative viability (NCI-H2170; first compound 0.6325 µM) was 0.543 and the relative viability (NCI-H2170; first compound 2 µM) was 0.456. It also gave a relative viability (NCI-H2170; first compound 6.325 µM) of 0.622, a relative viability (NCI-H2170; first compound 20 µM) of 0.554 and a relative viability (NCI-H520; first compound 0.2 µM) of 1.25. It also gave a relative viability (NCI-H520; first compound 0.6325 µM) of 1.06, a relative viability (NCI-H520; first compound 6.325 µM) of 1.17 and a relative viability (NCI-H520; first compound 20 µM) of 0.131. The relative viability (EMC-BAC-2; first compound 0.2 µM) was 1.18, the relative viability (EMC-BAC-2; first compound 0.6325 µM) was 1.16 and the relative viability (EMC-BAC-2; first compound 2 µM) was 1.13. For the same compound, the relative viability (EMC-BAC-2; first compound 6.325 µM) was 1.25, the relative viability (EMC-BAC-2; first compound 20 µM) was 1.15 and the relative viability (NCI-H1993; first compound 0.2 µM) was 0.997. For the same compound, the relative viability (NCI-H1993; first compound 0.6325 µM) was 0.772, the relative viability (NCI-H1993; first compound 2 µM) was 0.813 and the relative viability (NCI-H1993; first compound 6.325 µM) was 0.889. For the same compound, the relative viability (NCI-H1993; first compound 20 µM) was 1.02, the relative viability (PC-3 [JPC-3]; first compound 0.2 µM) was 0.853 and the relative viability (PC-3 [JPC-3]; first compound 0.6325 µM) was 0.572. It also gave a relative viability (PC-3 [JPC-3]; first compound 2 µM) of 0.816, a relative viability (PC-3 [JPC-3]; first compound 6.325 µM) of 0.794 and a relative viability (PC-3 [JPC-3]; first compound 20 µM) of 0.708. It also gave a relative viability (NCI-H1975; first compound 0.2 µM) of 1.13, a relative viability (NCI-H1975; first compound 0.6325 µM) of 1.03 and a relative viability (NCI-H1975; first compound 2 µM) of 1.12. For the same compound, the relative viability (NCI-H1975; first compound 6.325 µM) was 1.21, the relative viability (NCI-H1975; first compound 20 µM) was 0.96 and the relative viability (LCLC-97TM1; first compound 0.2 µM) was 0.605. It also gave a relative viability (LCLC-97TM1; first compound 2 µM) of 0.644, a relative viability (LCLC-97TM1; first compound 6.325 µM) of 0.531 and a relative viability (LCLC-97TM1; first compound 20 µM) of 0.0875. For the same compound, the relative viability (NCI-H1944; first compound 0.2 µM) was 1.18, the relative viability (NCI-H1944; first compound 0.6325 µM) was 0.892 and the relative viability (NCI-H1944; first compound 6.325 µM) was 1.02. It also gave a relative viability (NCI-H1944; first compound 20 µM) of 1.08, a relative viability (NCI-H1793; first compound 0.2 µM) of 0.576 and a relative viability (NCI-H1793; first compound 0.6325 µM) of 0.446. For the same compound, the relative viability (NCI-H1793; first compound 6.325 µM) was 0.609, the relative viability (NCI-H1793; first compound 20 µM) was 0.49 and the relative viability (NCI-H2009; first compound 0.2 µM) was 1.2. It also gave a relative viability (NCI-H2009; first compound 0.6325 µM) of 1.23, a relative viability (NCI-H2009; first compound 2 µM) of 1.23 and a relative viability (NCI-H2009; first compound 6.325 µM) of 1.16. The relative viability (NCI-H2009; first compound 20 µM) was 0.302, the relative viability (NCI-H1666; first compound 0.2 µM) was 1.01 and the relative viability (NCI-H1666; first compound 0.6325 µM) was 0.858. It also gave a relative viability (NCI-H1666; first compound 2 µM) of 1.03, a relative viability (NCI-H1666; first compound 6.325 µM) of 0.895 and a relative viability (NCI-H1666; first compound 20 µM) of 0.249. The relative viability (PC-14; first compound 0.2 µM) was 0.951, the relative viability (PC-14; first compound 0.6325 µM) was 0.932 and the relative viability (PC-14; first compound 2 µM) was 0.936. The relative viability (PC-14; first compound 6.325 µM) was 1.03, the relative viability (PC-14; first compound 20 µM) was 0.929 and the relative viability (NCI-H647; first compound 0.2 µM) was 1.15. It also gave a relative viability (NCI-H647; first compound 0.6325 µM) of 1, a relative viability (NCI-H647; first compound 2 µM) of 0.889 and a relative viability (NCI-H647; first compound 6.325 µM) of 1.24. It also gave a relative viability (NCI-H647; first compound 20 µM) of 0.909, a relative viability (SW 1573; first compound 0.2 µM) of 1.12 and a relative viability (SW 1573; first compound 0.6325 µM) of 0.614. It also gave a relative viability (SW 1573; first compound 2 µM) of 0.789, a relative viability (SW 1573; first compound 6.325 µM) of 0.0618 and a relative viability (SW 1573; first compound 20 µM) of 0.034. It also gave a relative viability (NCI-H727; first compound 0.2 µM) of 0.54, a relative viability (NCI-H727; first compound 0.6325 µM) of 0.41 and a relative viability (NCI-H727; first compound 2 µM) of 0.398. The relative viability (NCI-H727; first compound 6.325 µM) was 0.311, the relative viability (NCI-H727; first compound 20 µM) was 0.105 and the relative viability (NCI-H460; first compound 0.2 µM) was 1.44. The relative viability (NCI-H460; first compound 0.6325 µM) was 0.971, the relative viability (NCI-H460; first compound 2 µM) was 1.06 and the relative viability (NCI-H460; first compound 6.325 µM) was 0.528. It also gave a relative viability (NCI-H460; first compound 20 µM) of 0.0099, a relative viability (NCI-H2126; first compound 0.2 µM) of 0.931 and a relative viability (NCI-H2126; first compound 0.6325 µM) of 0.833. For the same compound, the relative viability (NCI-H2126; first compound 2 µM) was 0.897, the relative viability (NCI-H2126; first compound 6.325 µM) was 0.852 and the relative viability (NCI-H2126; first compound 20 µM) was 0.839. The relative viability (NCI-H1755; first compound 0.2 µM) was 1.07, the relative viability (NCI-H1755; first compound 0.6325 µM) was 1.01 and the relative viability (NCI-H1755; first compound 2 µM) was 0.535. For the same compound, the relative viability (NCI-H1755; first compound 6.325 µM) was 0.953, the relative viability (NCI-H1755; first compound 20 µM) was 1.05 and the relative viability (SK-LU-1; first compound 0.2 µM) was 0.848. For the same compound, the relative viability (SK-LU-1; first compound 0.6325 µM) was 1.06, the relative viability (SK-LU-1; first compound 2 µM) was 0.789 and the relative viability (SK-LU-1; first compound 6.325 µM) was 1.15. For the same compound, the relative viability (SK-LU-1; first compound 20 µM) was 0.0933, the relative viability (NCI-H2347; first compound 0.2 µM) was 0.887 and the relative viability (NCI-H2347; first compound 0.6325 µM) was 0.708. It also gave a relative viability (NCI-H2347; first compound 2 µM) of 0.519, a relative viability (NCI-H2347; first compound 6.325 µM) of 0.872 and a relative viability (NCI-H2347; first compound 20 µM) of 0.754.
